Laboratory results published in patent US20030124167A1, “Pest controlling” (priority 1999, published 2003).

Experiment: Miscibility of pheromones with corn oil or triethylcitrate
Assay type: physicochemical
Excerpt: Miscibility of the active ingredient and diluents were further examined by forming mixtures of various active ingredients (pheromones) with corn oil or triethylcitrate. The final composition of the mixture produced was 40 vol. % pheromones and 60 vol. % diluent (i.e., corn oil or triethyl citrate). The individual pheromones evaluated were: tomato pinworm, pink bollworm, leafroller, oriental fruitmoth, and coddling moth.

In the case of `C/C=C/C=C/CCCCCCCO` [coddling moth], the “Dissolution in both corn oil and triethyl citrate” value (pheromone solid at room temperature) is reported as “dissolved freely” and the “Miscibility in corn oil or triethylcitrate” value (room temperature, 40 vol. % pheromones/60 vol. % diluent) is reported as “completely miscible”.
